Experimental data reported in ChEMBL document CHEMBL1201862, “PubChem BioAssay data set” (2004).
One block for each molecule: values may come before it. Calls of active or inactive are those of the source.

Columns and labels:
Format in all cases: functional
[1] = biological target: Melanin-concentrating hormone receptor 1 (Homo sapiens, UniProt Q99705); assay: Late-stage fluorescence-based counterscreen for antagonists of the G-protein coupled receptor 7 (GPR7): cell-based dose response assay to identify antagonists of the melanin-concentrating hormone receptor 1 (MCHR1) Set 5.
[2] = biological target: T1, Neuropeptides B/W receptor type 1 (Homo sapiens, UniProt P48145); assay: GPR7 antagonist potency, late-stage follow-up, cell-based, fluorescence, dose response, set 5 (AID 588566)
T1 sequence (P48145 whole entry): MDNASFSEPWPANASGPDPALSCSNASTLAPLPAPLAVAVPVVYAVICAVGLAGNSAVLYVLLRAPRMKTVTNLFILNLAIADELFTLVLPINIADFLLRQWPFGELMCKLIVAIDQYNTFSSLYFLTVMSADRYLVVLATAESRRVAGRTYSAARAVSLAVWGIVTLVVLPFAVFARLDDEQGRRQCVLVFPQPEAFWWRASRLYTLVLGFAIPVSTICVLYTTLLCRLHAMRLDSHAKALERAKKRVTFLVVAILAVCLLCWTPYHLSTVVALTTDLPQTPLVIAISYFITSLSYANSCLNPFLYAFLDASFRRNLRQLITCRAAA

[3] = biological target: Cyclin-dependent kinase 8 (Homo sapiens, UniProt P49336); assay: Navigating the Kinome. Panel member name: CDK8
[4] = biological target: Mitogen-activated protein kinase 8 (Homo sapiens, UniProt P45983);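 further: value comes from one member of a kinome-wide kinase profiling panel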
[5] = biological target: Dual specificity tyrosine-phosphorylation-regulated kinase 1A (Homo sapiens, UniProt Q13627);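 further: measured against DYRK1A as one member of a broad kinome profiling panel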
LIM domain kinase 1 = LIM domain kinase 1 (Homo sapiens, UniProt P53667); assay: Navigating the Kinome. Panel member name: LIMK1
[6] = biological target: Platelet-derived growth factor receptor beta (Homo sapiens, UniProt P09619);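 further: value comes from a kinome panel, with PDGFRB tested as one panel member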
Platelet-derived growth factor receptor beta, sequence (P09619 whole entry): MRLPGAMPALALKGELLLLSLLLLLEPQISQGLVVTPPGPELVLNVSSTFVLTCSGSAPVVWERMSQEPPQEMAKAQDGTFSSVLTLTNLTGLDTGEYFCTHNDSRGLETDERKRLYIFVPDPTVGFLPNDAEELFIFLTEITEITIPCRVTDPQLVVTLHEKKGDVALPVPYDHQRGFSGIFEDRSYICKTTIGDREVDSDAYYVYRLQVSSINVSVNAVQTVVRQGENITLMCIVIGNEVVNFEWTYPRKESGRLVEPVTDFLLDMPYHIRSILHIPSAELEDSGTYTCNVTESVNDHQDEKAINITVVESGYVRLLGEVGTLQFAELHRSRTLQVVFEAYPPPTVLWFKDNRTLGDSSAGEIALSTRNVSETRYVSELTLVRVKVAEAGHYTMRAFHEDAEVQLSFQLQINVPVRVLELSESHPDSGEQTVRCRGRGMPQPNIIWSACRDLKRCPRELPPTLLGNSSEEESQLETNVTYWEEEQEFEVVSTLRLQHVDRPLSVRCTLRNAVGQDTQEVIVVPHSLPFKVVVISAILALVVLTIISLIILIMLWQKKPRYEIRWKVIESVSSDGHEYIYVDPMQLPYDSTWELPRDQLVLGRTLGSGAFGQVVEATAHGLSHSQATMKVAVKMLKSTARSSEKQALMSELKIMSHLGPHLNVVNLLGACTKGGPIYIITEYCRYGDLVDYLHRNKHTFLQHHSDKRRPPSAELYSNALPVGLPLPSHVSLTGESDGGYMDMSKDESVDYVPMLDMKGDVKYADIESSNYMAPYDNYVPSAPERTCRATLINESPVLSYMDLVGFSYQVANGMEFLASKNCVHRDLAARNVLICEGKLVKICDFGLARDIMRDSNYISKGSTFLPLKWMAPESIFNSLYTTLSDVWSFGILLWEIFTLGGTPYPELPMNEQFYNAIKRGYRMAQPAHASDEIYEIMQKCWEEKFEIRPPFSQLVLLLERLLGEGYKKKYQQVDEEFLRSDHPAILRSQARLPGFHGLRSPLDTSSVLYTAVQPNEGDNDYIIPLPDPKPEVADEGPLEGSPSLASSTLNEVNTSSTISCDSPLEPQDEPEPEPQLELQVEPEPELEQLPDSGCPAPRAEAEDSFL

[7] = biological target: Serine/threonine-protein kinase TAO1 (Homo sapiens, UniProt Q7L7X3)
[8] = biological target: Serine/threonine-protein kinase pim-1 (Homo sapiens, UniProt P11309)
Serine/threonine-protein kinase pim-1, sequence (P11309 whole entry): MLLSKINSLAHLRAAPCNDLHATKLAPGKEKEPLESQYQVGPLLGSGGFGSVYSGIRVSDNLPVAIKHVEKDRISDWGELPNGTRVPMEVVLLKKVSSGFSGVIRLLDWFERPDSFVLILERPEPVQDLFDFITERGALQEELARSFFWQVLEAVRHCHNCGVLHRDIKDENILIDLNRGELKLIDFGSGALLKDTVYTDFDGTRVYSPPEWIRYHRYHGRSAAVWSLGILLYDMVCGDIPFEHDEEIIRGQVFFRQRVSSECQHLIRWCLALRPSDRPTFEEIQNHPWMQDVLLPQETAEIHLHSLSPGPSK

[9] = biological target: Cyclin-dependent kinase 5 (Homo sapiens, UniProt Q00535);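 further: CDK5 measured as one member of a kinase profiling panel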
[10] = biological target: Dual specificity mitogen-activated protein kinase kinase 1 (Homo sapiens, UniProt Q02750); assay: Navigating the Kinome. Panel member name: MAP2K1
[11] = biological target: Receptor-type tyrosine-protein kinase FLT3 (Homo sapiens, UniProt P36888);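 further: FLT3 was tested as one member of a kinome-wide kinase panel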
Receptor-type tyrosine-protein kinase FLT3, sequence (P36888 whole entry): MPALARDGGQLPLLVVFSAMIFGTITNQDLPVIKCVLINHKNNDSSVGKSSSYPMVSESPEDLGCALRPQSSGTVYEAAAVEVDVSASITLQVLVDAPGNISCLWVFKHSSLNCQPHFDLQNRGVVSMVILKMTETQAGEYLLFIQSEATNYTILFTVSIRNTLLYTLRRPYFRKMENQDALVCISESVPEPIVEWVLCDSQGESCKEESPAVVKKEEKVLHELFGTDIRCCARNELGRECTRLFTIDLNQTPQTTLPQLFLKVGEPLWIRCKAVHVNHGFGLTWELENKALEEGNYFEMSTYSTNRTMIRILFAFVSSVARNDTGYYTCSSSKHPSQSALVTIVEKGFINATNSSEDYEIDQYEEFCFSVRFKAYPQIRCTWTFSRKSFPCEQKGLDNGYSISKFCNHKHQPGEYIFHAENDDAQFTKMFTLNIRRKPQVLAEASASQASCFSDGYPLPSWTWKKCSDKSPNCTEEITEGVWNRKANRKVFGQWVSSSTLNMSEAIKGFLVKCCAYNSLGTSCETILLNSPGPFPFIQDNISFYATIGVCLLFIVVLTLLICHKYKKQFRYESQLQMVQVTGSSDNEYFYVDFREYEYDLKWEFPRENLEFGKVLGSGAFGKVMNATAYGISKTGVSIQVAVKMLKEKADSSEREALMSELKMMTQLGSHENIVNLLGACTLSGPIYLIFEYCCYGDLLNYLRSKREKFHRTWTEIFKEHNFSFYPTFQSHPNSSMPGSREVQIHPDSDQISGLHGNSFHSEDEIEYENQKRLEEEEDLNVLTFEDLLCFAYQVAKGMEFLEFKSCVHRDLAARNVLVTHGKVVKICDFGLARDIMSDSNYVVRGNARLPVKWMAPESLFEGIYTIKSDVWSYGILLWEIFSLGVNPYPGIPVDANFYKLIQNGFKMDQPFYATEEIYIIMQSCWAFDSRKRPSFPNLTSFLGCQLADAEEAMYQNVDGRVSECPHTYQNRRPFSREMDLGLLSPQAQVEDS

[12] = biological target: Leukocyte tyrosine kinase receptor (Homo sapiens, UniProt P29376); assay: Navigating the Kinome. Panel member name: LTK
[13] = biological target: Tyrosine-protein kinase JAK3 (Homo sapiens, UniProt P52333)
[14] = biological target: Death-associated protein kinase 3 (Homo sapiens, UniProt O43293);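 further: measured as one member of a kinome-wide profiling panel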
[15] = biological target: cAMP-dependent protein kinase catalytic subunit PRKX (Homo sapiens, UniProt P51817)
[16] = biological target: Mitogen-activated protein kinase 9 (Homo sapiens, UniProt P45984);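 further: value from a kinome panel profiling assay, MAPK9 panel entry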
[17] = biological target: cAMP-dependent protein kinase catalytic subunit alpha (Homo sapiens, UniProt P17612)
Aurora kinase A = Aurora kinase A (Homo sapiens, UniProt O14965);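 further: value from the Navigating the Kinome kinase panel profiling, panel entry STK6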
[18] = biological target: Tyrosine-protein kinase BTK (Homo sapiens, UniProt Q06187)
[19] = biological target: BDNF/NT-3 growth factors receptor (Homo sapiens, UniProt Q16620);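 further: NTRK2 measured as one member of a broad kinome-wide kinase profiling panel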
[20] = biological target: Serine/threonine-protein kinase PAK 4 (Homo sapiens, UniProt O96013);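 further: value obtained within a kinome profiling panel in which PAK4 was one of the panel members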
[21] = biological target: Dual specificity mitogen-activated protein kinase kinase 2 (Homo sapiens, UniProt P36507); assay: Navigating the Kinome. Panel member name: MAP2K2
[22] = biological target: Inhibitor of nuclear factor kappa-B kinase subunit epsilon (Homo sapiens, UniProt Q14164); assay: Navigating the Kinome. Panel member name: IKBKE
[23] = biological target: Tyrosine-protein kinase receptor TYRO3 (Homo sapiens, UniProt Q06418);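 further: TYRO3 value obtained as one member of a kinome-wide profiling panel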
[24] = biological target: Dual specificity protein kinase CLK2 (Homo sapiens, UniProt P49760)
[25] = biological target: Serine/threonine-protein kinase D3 (Homo sapiens, UniProt O94806);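 further: determined within a kinase panel screen, with PRKCN as the panel member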
[26] = biological target: Dual specificity protein kinase CLK4 (Homo sapiens, UniProt Q9HAZ1)
[27] = biological target: Ribosomal protein S6 kinase alpha-3 (Homo sapiens, UniProt P51812);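 further: measured within a kinome-wide profiling panel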
[28] = biological target: Platelet-derived growth factor receptor alpha (Homo sapiens, UniProt P16234); assay: Navigating the Kinome. Panel member name: PDGFRA
[29] = biological target: Glycogen synthase kinase-3 beta (Homo sapiens, UniProt P49841);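 further: value comes from a broad kinome profiling panel, with GSK3B as the panel member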
[30] = biological target: Rho-associated protein kinase 1 (Homo sapiens, UniProt Q13464);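 further: measured within a broad kinome-wide panel profiling many kinases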
Aurora kinase B = Aurora kinase B (Homo sapiens, UniProt Q96GD4)
Aurora kinase B, sequence (Q96GD4 whole entry): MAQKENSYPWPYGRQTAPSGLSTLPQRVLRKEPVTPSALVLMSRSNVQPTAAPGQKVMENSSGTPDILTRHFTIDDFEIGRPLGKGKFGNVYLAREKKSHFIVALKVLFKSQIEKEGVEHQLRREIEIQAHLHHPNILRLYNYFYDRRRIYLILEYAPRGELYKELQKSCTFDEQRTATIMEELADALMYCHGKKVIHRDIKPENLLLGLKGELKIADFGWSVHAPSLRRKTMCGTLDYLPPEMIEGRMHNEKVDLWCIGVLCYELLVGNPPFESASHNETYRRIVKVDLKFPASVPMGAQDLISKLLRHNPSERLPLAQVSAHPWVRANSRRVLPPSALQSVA

[31] = biological target: Serine/threonine-protein kinase Nek2 (Homo sapiens, UniProt P51955)
Activated CDC42 kinase 1 = Activated CDC42 kinase 1 (Homo sapiens, UniProt Q07912); assay: Navigating the Kinome. Panel member name: ACK1
[32] = biological target: Cyclin-dependent kinase 7 (Homo sapiens, UniProt P50613);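 further: value comes from a kinome-wide kinase profiling panel in which CDK7 is one member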
Cyclin-dependent kinase 7, sequence (P50613 whole entry): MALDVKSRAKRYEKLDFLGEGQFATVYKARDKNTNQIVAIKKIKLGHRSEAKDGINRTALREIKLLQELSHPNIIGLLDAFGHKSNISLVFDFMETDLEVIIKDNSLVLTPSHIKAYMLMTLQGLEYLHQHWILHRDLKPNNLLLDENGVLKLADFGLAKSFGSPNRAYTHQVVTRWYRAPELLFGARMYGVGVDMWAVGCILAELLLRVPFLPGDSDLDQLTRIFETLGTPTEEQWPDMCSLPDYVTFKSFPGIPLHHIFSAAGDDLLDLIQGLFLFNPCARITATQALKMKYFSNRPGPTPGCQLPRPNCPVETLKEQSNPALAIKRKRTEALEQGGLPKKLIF

[33] = biological target: Serine/threonine-protein kinase TBK1 (Homo sapiens, UniProt Q9UHD2); assay: Navigating the Kinome. Panel member name: TBK1
[34] = biological target: Mitogen-activated protein kinase 14 (Homo sapiens, UniProt Q16539);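 further: part of a kinome-wide panel, MAPK14 entry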
[35] = biological target: Glycogen synthase kinase-3 alpha (Homo sapiens, UniProt P49840);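 further: GSK3A result taken from a broad kinome-wide kinase panel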
Glycogen synthase kinase-3 alpha, sequence (P49840 whole entry): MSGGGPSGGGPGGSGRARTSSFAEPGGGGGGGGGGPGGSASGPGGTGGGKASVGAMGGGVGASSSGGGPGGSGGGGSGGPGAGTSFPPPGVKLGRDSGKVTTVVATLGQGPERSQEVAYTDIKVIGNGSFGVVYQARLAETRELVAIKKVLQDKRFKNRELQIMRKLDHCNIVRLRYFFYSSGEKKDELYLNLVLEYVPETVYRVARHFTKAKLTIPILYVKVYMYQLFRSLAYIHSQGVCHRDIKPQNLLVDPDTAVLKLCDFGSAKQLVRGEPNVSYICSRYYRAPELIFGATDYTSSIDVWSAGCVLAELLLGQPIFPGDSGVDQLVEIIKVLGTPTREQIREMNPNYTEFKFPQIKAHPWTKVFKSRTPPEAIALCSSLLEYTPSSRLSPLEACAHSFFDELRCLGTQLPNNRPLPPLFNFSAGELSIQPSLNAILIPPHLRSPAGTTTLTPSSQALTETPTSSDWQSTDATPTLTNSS

[36] = biological target: Tyrosine-protein kinase Fyn (Homo sapiens, UniProt P06241)
[37] = biological target: Vascular endothelial growth factor receptor 1 (Homo sapiens, UniProt P17948);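 further: measured within a kinome-wide profiling panel, FLT1 as the panel member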
Vascular endothelial growth factor receptor 1, sequence (P17948 whole entry): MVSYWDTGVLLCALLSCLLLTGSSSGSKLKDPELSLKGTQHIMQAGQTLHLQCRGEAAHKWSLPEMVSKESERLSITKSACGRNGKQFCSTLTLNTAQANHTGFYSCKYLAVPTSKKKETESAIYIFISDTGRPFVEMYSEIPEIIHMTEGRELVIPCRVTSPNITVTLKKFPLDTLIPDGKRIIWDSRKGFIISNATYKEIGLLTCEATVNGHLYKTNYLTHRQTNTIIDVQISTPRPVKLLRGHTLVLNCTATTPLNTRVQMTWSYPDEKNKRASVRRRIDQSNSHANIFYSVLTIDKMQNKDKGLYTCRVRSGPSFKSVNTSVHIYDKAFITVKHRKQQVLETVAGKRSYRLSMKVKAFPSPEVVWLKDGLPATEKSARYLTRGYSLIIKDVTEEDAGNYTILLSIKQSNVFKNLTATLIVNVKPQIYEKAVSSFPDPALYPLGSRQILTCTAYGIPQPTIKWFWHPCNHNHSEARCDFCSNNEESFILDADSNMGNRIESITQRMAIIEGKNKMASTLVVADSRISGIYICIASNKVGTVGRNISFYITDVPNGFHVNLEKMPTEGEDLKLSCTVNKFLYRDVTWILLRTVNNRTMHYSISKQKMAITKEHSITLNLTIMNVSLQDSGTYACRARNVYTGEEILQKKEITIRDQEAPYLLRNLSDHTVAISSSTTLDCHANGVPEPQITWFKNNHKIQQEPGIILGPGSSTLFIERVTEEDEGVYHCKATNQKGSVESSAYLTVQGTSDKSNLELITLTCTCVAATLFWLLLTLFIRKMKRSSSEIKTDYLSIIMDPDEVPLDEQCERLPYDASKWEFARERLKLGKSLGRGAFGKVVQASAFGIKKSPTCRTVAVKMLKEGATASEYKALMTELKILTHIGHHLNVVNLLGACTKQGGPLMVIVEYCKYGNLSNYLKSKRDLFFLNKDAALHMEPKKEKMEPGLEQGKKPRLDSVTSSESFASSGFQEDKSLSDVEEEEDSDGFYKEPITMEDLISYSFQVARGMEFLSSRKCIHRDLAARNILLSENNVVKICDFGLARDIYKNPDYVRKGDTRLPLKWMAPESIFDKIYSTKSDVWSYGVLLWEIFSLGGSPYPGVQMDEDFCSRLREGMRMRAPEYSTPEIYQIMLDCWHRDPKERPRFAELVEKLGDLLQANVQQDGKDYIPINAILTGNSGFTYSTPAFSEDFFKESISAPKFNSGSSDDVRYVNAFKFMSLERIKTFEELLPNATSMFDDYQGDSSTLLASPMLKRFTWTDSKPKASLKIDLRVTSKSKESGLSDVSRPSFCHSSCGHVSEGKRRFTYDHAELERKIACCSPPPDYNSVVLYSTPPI

[38] = biological target: Mitogen-activated protein kinase kinase kinase kinase 4 (Homo sapiens, UniProt O95819)
[39] = biological target: Proto-oncogene tyrosine-protein kinase receptor Ret (Homo sapiens, UniProt P07949);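 further: measured within a kinome-wide profiling panel, RET as the panel member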
[40] = biological target: Macrophage-stimulating protein receptor (Homo sapiens, UniProt Q04912); assay: Navigating the Kinome. Panel member name: MST1R
[41] = biological target: Dual specificity tyrosine-phosphorylation-regulated kinase 1B (Homo sapiens, UniProt Q9Y463); assay: Navigating the Kinome. Panel member name: DYRK1B
[42] = biological target: Cyclin-dependent kinase 9 (Homo sapiens, UniProt P50750);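 further: value from the CDK9 entry of a kinome-spanning kinase panel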
[43] = biological target: Leucine-rich repeat serine/threonine-protein kinase 2 (Homo sapiens, UniProt Q5S007);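 further: value from a broad kinome-wide panel profiling study in which LRRK2 was one of the kinases tested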
Focal adhesion kinase 1 = Focal adhesion kinase 1 (Homo sapiens, UniProt Q05397);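 further: measured as one member of a kinome panel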
[44] = biological target: 5'-AMP-activated protein kinase catalytic subunit alpha-1 (Homo sapiens, UniProt Q13131)
[45] = biological target: Calcium/calmodulin-dependent protein kinase type II subunit alpha (Homo sapiens, UniProt Q9UQM7); assay: Navigating the Kinome. Panel member name: CAMK2A
[46] = biological target: Hepatocyte growth factor receptor (Homo sapiens, UniProt P08581);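 further: kinase panel profiling across the kinome, with MET as the panel member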
[47] = biological target: High affinity nerve growth factor receptor (Homo sapiens, UniProt P04629);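 further: NTRK1 tested as one member of a kinome-wide profiling panel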
[48] = biological target: Tyrosine-protein kinase Lck (Homo sapiens, UniProt P06239);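 further: lck was assayed as one member of a kinase panel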

IC50 [1]: 1130 nM (active) | IC50 [2]: 360 nM (active)
Compound: COc1ccc(C(C#N)c2c(Cl)cnn(Cc3cccc4ccccc34)c2=O)cc1 (stereo not drawn)

Ki [3]: 316 nM (active) | Ki [4]: 3980 nM (active) | Ki [5]: 1260 nM (active) | Ki (LIM domain kinase 1): 126 nM (active) | Ki [6]: > 2000 nM (inactive) | Ki [7]: > 6310 nM (inactive) | Ki [8]: 1000 nM (active) | Ki [9]: 6.31 nM (active) | Ki [10]: > 3160 nM (inactive) | Ki [11]: > 3160 nM (inactive) | Ki [12]: 2000 nM (active) | Ki [13]: > 5010 nM (inactive) | Ki [15]: > 3160 nM (inactive) | Ki [16]: > 3980 nM (inactive) | Ki [17]: > 1260 nM (inactive) | Ki (Aurora kinase A): > 1580 nM (inactive) | Ki [18]: > 6310 nM (inactive) | Ki [19]: > 3980 nM (inactive) | Ki [20]: > 5010 nM (inactive) | Ki [21]: > 3980 nM (inactive) | Ki [22]: > 3160 nM (inactive) | Ki [23]: 2000 nM (active) | Ki [24]: 2000 nM (active) | Ki [25]: 794 nM (active) | Ki [26]: 126 nM (active) | Ki [27]: > 3980 nM (inactive) | Ki [28]: 2000 nM (active) | Ki [29]: 1000 nM (active) | Ki [30]: > 3980 nM (inactive) | Ki (Aurora kinase B): > 3980 nM (inactive) | Ki [31]: > 3160 nM (inactive) | Ki (Activated CDC42 kinase 1): > 3980 nM (inactive) | Ki [32]: 3980 nM (active) | Ki [33]: > 3160 nM (inactive) | Ki [34]: > 3980 nM (inactive) | Ki [35]: 1580 nM (active) | Ki [36]: > 6310 nM (inactive) | Ki [37]: > 3980 nM (inactive) | Ki [38]: 5010 nM (active) | Ki [39]: 1580 nM (active) | Ki [40]: 1580 nM (active) | Ki [41]: 631 nM (active) | Ki [42]: 200 nM (active) | Ki [43]: 1580 nM (active) | Ki (Focal adhesion kinase 1): > 6310 nM (inactive) | Ki [44]: 2000 nM (active) | Ki [45]: > 3980 nM (inactive) | Ki [46]: 1000 nM (active) | Ki [47]: 1580 nM (active) | Ki [48]: > 6310 nM (inactive)
Compound: O=C(Nc1cnccn1)Nc1cccc2c(O)cccc12
Ki [14]: 316 nM (active)
